Laboratory results taken from EP4806891A1 (Kangbaida (Sichuan) Biotechnology Co., Ltd., priority 2023, dated 2025).

Molecular target: T1, HEK-Blue-hTLR8 cells (Homo sapiens, UniProt Q9NR97)
T1 construct: expressed in transfected cells; host or cells: HEK-Blue-hTLR8 cells (HEK293-derived reporter line)
T1 sequence (Q9NR97 27-1041): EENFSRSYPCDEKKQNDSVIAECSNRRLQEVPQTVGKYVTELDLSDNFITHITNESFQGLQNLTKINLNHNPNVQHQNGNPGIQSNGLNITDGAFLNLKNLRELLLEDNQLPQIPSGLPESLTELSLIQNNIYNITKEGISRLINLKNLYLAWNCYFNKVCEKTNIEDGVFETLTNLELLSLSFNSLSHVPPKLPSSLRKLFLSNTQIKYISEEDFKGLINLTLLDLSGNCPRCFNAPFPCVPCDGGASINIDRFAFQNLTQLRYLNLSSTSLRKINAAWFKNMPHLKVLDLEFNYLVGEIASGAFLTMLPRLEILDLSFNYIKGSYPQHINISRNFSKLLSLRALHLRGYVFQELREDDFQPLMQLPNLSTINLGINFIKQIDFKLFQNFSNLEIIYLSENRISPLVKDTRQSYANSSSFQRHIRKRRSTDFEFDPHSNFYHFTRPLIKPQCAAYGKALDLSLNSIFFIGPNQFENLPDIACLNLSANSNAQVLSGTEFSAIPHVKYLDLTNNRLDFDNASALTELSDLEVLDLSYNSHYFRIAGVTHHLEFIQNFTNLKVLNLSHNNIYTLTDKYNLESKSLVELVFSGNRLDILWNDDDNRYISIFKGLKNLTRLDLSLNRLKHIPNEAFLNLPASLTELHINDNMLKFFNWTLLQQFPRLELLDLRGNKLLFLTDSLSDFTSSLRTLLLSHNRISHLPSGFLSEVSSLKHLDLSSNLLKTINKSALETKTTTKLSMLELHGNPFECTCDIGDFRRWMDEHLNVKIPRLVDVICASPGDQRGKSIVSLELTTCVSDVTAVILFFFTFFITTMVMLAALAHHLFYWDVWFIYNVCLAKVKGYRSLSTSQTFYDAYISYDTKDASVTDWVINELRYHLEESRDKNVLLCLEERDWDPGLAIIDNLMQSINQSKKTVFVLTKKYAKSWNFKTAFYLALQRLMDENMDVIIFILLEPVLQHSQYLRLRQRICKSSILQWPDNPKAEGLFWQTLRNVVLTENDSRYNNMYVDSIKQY
Assay: HEK-Blue-hTLR8 cell inhibition assay
Type: cell-based
Conditions: R848 3 µM, 16 h, OD 620 nm, read-out: TLR8 IC50
Summary of the method: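 Cells were pre-incubated 4 h, then co-treated 16 h at 37 °C with compound (10 doses, 0.5–10000 nM final) plus R848 (0.8 µM for TLR7, 3 µM for TLR8) or ODN2006 (1 µM, TLR9). Reporter OD620 gave inhibition relative to DMSO blank and agonist-only controls; IC50 came from curve fitting.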

| Compound | IC50 [µM] |
| --- | --- |
| CN1CC2(CCC(c3nnc([C@]45CN(c6ccc(C#N)c7ncccc67)C[C@@]4(C(F)(F)F)C5)o3)CC2)C1 [Compound 13, 5-((1S,5R)-1-(5-(2-methyl-2-azaspiro[3.5]nonan-7-yl)-1,3,4-oxadiazol-2-yl)-5-(trifluoromethyl)-3-azabicyclo[3.1.0]hexan-3-yl)quinoline-8-carbonitrile] | < 0.1 |
| CN1CC(c2nnc([C@]34CN(c5ccc(C(F)(F)F)c6ncccc56)C[C@@]3(C(F)(F)F)C4)o2)C1 [Compound 4, 2-(1-methylazetidin-3-yl)-5-((1S,5R)-5-(trifluoromethyl)-3-(8-(trifluoromethyl)quinolin-5-yl)-3-azabicyclo[3.1.0]hexan-1-yl)-1,3,4-oxadiazole] | < 0.1 |
| CN1CCC(c2nnc([C@]34CN(c5ccc(C#N)c6ncccc56)C[C@@]3(C(F)(F)F)C4)n2C)CC1 [Compound 5, 5-((1S,5R)-1-(4-methyl-5-(1-methylpiperidin-4-yl)-4H-1,2,4-triazol-3-yl)-5-(trifluoromethyl)-3-azabicyclo[3.1.0]hexan-3-yl)quinoline-8-carbonitrile] | > 1 |
| FC(F)(F)c1ccc(N2C[C@]3(c4nnc(C5(F)CCNCC5)o4)C[C@]3(C(F)(F)F)C2)c2cccnc12 [Compound 3, 2-(4-fluoropiperidin-4-yl)-5-((1S,5R)-5-(trifluoromethyl)-3-(8-(trifluoromethyl)quinolin-5-yl)-3-azabicyclo[3.1.0]hexan-1-yl)-1,3,4-oxadiazole] | < 0.1 |
| NC(=O)CN1CCC(c2nnc([C@]34CN(c5ccc(C(F)(F)F)c6ncccc56)C[C@@]3(C(F)(F)F)C4)o2)CC1 [Compound 77, 2-(4-(5-((1S,5R)-5-(trifluoromethyl)-3-(8-(trifluoromethyl)quinolin-5-yl)-3-azabicyclo[3.1.0]hexan-1-yl)-1,3,4-oxadiazol-2-yl)piperidin-1-yl)acetamide] | < 0.1 |
| FC(F)(F)c1ccc(N2C[C@]3(c4nnc(C5CCNCC5)o4)C[C@]3(C(F)(F)F)C2)c2cccnc12 [Compound 75, 2-(piperidin-4-yl)-5-((1S,5R)-5-(trifluoromethyl)-3-(8-(trifluoromethyl)quinolin-5-yl)-3-azabicyclo[3.1.0]hexan-1-yl)-1,3,4-oxadiazole] | < 0.1 |
| CN1CCC(C)(c2nnc([C@]34CN(c5ccc(C#N)c6ncccc56)C[C@@]3(C(F)(F)F)C4)o2)CC1 [Compound 8, 5-((1S,5R)-1-(5-(1,4-dimethylpiperidin-4-yl)-1,3,4-oxadiazol-2-yl)-5-(trifluoromethyl)-3-azabicyclo[3.1.0]hexan-3-yl)quinoline-8-carbonitrile] | < 0.1 |
| CN1CCC(Oc2nnc([C@]34CN(c5ccc(C#N)c6ncccc56)C[C@@]3(C(F)(F)F)C4)o2)CC1 [Compound 15, 5-((1S,5R)-1-(5-((1-methylpiperidin-4-yl)oxy)-1,3,4-oxadiazol-2-yl)-5-(trifluoromethyl)-3-azabicyclo[3.1.0]hexan-3-yl)quinoline-8-carbonitrile] | < 0.1 |
| N#Cc1ccc(N2C[C@]3(c4nnc(C5(F)CCNC5)o4)C[C@]3(C(F)(F)F)C2)c2cccnc12 (stereo partly drawn) [Compound 46, 5-((1S,5R)-1-(5-(3-fluoropyrrolidin-3-yl)-1,3,4-oxadiazol-2-yl)-5-(trifluoromethyl)-3-azabicyclo[3.1.0]hexan-3-yl)quinoline-8-carbonitrile] | < 0.1 |
| CN1CCC(c2nnc([C@]34CN(c5c(Br)cc(C#N)n6ncc(Br)c56)C[C@@]3(C(F)(F)F)C4)o2)CC1 [Compound 85, 3,5-dibromo-4-((1S,5R)-1-(5-(1-methylpiperidin-4-yl)-1,3,4-oxadiazol-2-yl)-5-(trifluoromethyl)-3-azabicyclo[3.1.0]hexan-3-yl)pyrazolo[1,5-a]pyridine-7-carbonitrile] | < 1 |
| CN1CCC(c2nnc([C@]34CN(c5c(Br)cc(C#N)n6nccc56)C[C@@]3(C(F)(F)F)C4)o2)CC1 [Compound 86, 5-bromo-4-((1S,5R)-1-(5-(1-methylpiperidin-4-yl)-1,3,4-oxadiazol-2-yl)-5-(trifluoromethyl)-3-azabicyclo[3.1.0]hexan-3-yl)pyrazolo[1,5-a]pyridine-7-carbonitrile] | < 0.1 |
